According to patent US10906904B2, “ADO-resistant cysteamine analogs and uses thereof” (HORIZON ORPHAN LLC, priority 2015, dated 2021):
Where two headings read alike, the source gives them in different places. Each block holds one molecule with its values, some of them ahead of it.

What was measured:
human recombinant ADO = molecular target: T1, human recombinant ADO (Homo sapiens, UniProt Q96SZ5); format: in vitro ADME
T1 sequence (Q96SZ5 1-270): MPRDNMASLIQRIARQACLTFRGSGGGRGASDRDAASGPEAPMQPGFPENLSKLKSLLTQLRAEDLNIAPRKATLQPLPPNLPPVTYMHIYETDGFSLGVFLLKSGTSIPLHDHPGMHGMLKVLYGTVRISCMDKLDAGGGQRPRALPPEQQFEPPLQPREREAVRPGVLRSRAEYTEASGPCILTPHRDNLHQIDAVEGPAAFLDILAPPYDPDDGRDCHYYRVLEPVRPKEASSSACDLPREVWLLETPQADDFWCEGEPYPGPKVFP
Method: The rate of ADO metabolism was determined by incubating 15 mM test compound with 60 μg/ml human recombinant ADO and 20 nM MitoXpress® O2-sensitive fluorescent probe (Luxcel) at 37° C. in assay buffer/salt in a sealed assay chamber. The initial rate of fluorescence (excitation λ380 nm and emission λ650 nm) increase was used to measure ADO-dependent oxygen depletion activity. The ability of ADO to metabolize compounds and concomitantly consume oxygen was expressed relative to that of 15 mM cysteamine.

Cystine reactivity assay [1] = conditions: Table 4
Cystine reactivity assay [2] = test: Cystine reactivity assay; parameters: Cystine Reactivity: unit not given here; conditions: for Cystine Reactivity Assay (30° C.) (%) Mean Value: percentage of 3 mM cysteamine
Method: Cystine reactivity was assessed by incubating 3 mM test compound with 100 nM BODIPY® FL L-Cystine (Life Tech.) at 30° C., pH 7.4 in phosphate buffer. […] Compound cystine reactivity was expressed as a percentage of that of 3 mM cysteamine.
Under resting conditions, the inherent fluorescence of BODIPY® FL L-cystine was very low due to the spatial proximity of the two BODIPY molecules causing quenching. Under chemical reaction (disruption of the S—S bond), the spatial distance was increased, the quenching lost, and measured fluorescence increased. Time (minutes) vs. fluorescence (relative fluorescence units—RFU) was plotted and linear regression analysis was performed to generate a slope value corresponding to the reaction rate in RFU/min and an R2 value.

[3] = test system: cystinotic human fibroblasts; test: Cystine depletion assay; format: cell-based; conditions: for Cystine Depletion (%) / Emax: relative to cystine depletion by cysteamine (100%) at a similar concentration; for Cystine depletion: compound at 50 μM or 100 μM, Tables 1-3; for Emax: Homo sapiens, Fibroblast, 1 h
Method: The ability of test compounds to deplete cystine from cystinotic human fibroblasts (Coriell) was determined by incubating compounds with cells for 60 min at 37° C., 95% (v/v) air/5% (v/v) CO2 in Minimal Essential Media Eagle. Treated cell samples were subsequently harvested, then homogenized to ensure plasma and lysosomal membrane disruption. Protein was removed by acid precipitation and cystine in the supernatant measured using LC-MS/MS and HILIC chromatography. Protein levels were determined and cystine levels reported as nM per mg/ml protein. Cystine levels after test compound treatment were expressed as a percentage of that of untreated control cells.
Compounds were assayed at a concentration of 50 μM or 100 μM according to the general methods described above.
Cystine depletion levels for the compounds are expressed in Table 4 as a percent relative to the cystine depletion achieved by cysteamine (c.f. cysteamine 100%) at a similar concentration.
Cystine depletion levels for each of the compounds in Table 5 are expressed as a percent relative to the cystine depletion achieved by cysteamine (c.f. cysteamine 100%) at a similar concentration.

[4] = Rodent pharmacokinetic assay (rat); format: in vivo; conditions: 2 and 10 mg free base equivalents per kg, intravenous and oral gavage
Method: (§1) Pharmacokinetic parameters of a test compound in a rodent species (mouse and/or rat) were determined by administering a test compound at 2 and 10 mg free base equivalents per kg via the intravenous and oral gavage route to groups of three animals per route.
(§2) Blood samples were taken at various times after administration, plasma prepared, and submitted to analysis for parent drug using a qualified LC-MS-MS assay. Pharmacokinetics parameters derived from the plasma analytical data were determined using non-compartmental analysis.

[5] = Dimethyl sulfide (DMS) detection in rat whole blood following oral compound administration; format: in vivo
Method: Male Sprague Dawley (SD) rats (200-250 g) were housed in cages under a 12 hour light/dark cycle with free access to food and water. Temperature and humidity were controlled according to UK Home Office regulations. For oral (po) administration, test compounds were formulated in water at a concentration of 30 mg/mL, to provide a dose of 150 mg/kg when administered orally in a 5 mL/kg dosing volume. Following compound or water (vehicle) administration to rats (n=15 per compound), terminal blood samples (>5 mL) were taken by cardiac puncture under CO2 at defined time-points post oral dosing (pre-dose, 0.25 hour, 0.5 hour, 1 hour and 2 hour). Blood was placed in sealed heparinized Eppendorf tubes on wet ice and stored at 4° C. prior to analyzing DMS levels by gas chromatography (GC).
For each sample of rat blood, 1 mL was added to an evacuated 20 mL GC-Headspace vial containing tetrahydrofuran (THF) internal standard. Headspace vials were sealed with a crimp cap and septum (to prevent the vaporization of volatile sulfur compounds into the open air) and thoroughly vortex mixed. All samples were processed using gas chromatography to measure DMS levels. In short, sulfur containing compounds were thermally liberated into the gas carrier stream and injected (1 μL) into the gas chromatography column (30 m×0.32 mm DB-624 1.8 μm). Under these conditions, the retention time for dimethyl sulfide (DMS) and THF internal standard were approximately 1.83 minutes and 3.82 minutes respectively.
For each analyzed blood sample, the ratio of DMS peak area to THF peak area was calculated. For the DMS calibration curve and assay linearity checks, this ratio was graphically plotted against the concentration of reference DMS standards (blank, 60 nM, 180 nM, 360 nM, 600 nM, 1200 nM, 1800 nM and 3000 nM). The concentration of DMS in each blood sample was calculated from the equation produced by this plot by linear regression analysis. […].

St-HdhQ^111/111 cells = test: Glutamate-induced neuronal excitotoxicity assay; format: cell-based; conditions: for viability at 10 µM / viability at 100 µM: STHdhQ111; for viability at 10 µM: read-out: HdhQ^111/111 cell % survival (mean ± STD) Test Conc. 10 μM; for viability at 100 µM: read-out: HdhQ^111/111 cell % survival (mean ± STD) Test Conc. 100 μM
Method: The ability of test compounds to inhibit glutamate-induced excitotoxicity (neuroprotection) in St-HdhQ^111/111 cells was determined by incubating compounds with cells for 60 min at 33° C., 95% (v:v) air/5% (v:v) CO2 in Dulbecco's Modified Eagle Media. Following this, excitotoxicity was induced by the addition of 6 mM L-glutamate for 24 hours. Cell viability was assessed by measuring ATP levels using a luminescent-based CellTitre Glo assay (Promega). Compound neuroprotection (% cell survival) was expressed as a % of the effect recorded with 100 μM cysteamine (denoted as 100% cell survival).

[6] = test system: cryopreserved rat hepatocytes; test: Rat hepatocyte stability assay
Method: Rat hepatocytes were used to model in vivo hepatic clearance of the compounds by the ADO enzyme. Briefly, a Hepatocyte Stability Assay was carried out using cryopreserved rat hepatocytes.

[7] = Rodent pharmacokinetic assay (mouse)
Method: as §1, §2

[8] = 10 μM, 6 mM L-glutamate 24 hours, % of effect of 100 μM cysteamine
[9] = 100 μM, 6 mM L-glutamate 24 hours, % of effect of 100 μM cysteamine
[10] = 2 and 10 mg free base equivalents per kg, intravenous and oral gavage
[11] = Table 4, read-out: Cystine Depletion (%)

Structure (SMILES): CC(=O)NCCS [Compound 17287]
ADO Metabolism Assay (%) Mean Value (human recombinant ADO; human, 15 mM): <25%
Cystine Reactivity Assay (RT) (RFU) Mean Value (Cystine reactivity assay [1]): <4000 RFU

Structure (SMILES): NCCS [Cysteamine]
Cystine Reactivity Assay (30° C.) (%) Mean Value (Cystine reactivity assay [2]; Table 4): >90%
Cystine Reactivity (Cystine reactivity assay [2]; Tables 1-3): 6543
ADO Metabolism Assay (%) Mean Value (human recombinant ADO; Table 4, relative to 15 mM cysteamine): >75%
ADO metabolism (human recombinant ADO; relative to 15 mM cysteamine, Tables 1-3): 111%
Cystine Depletion (%) ([3]; Table 4): 100%
Cystine depletion [3]: 101%
Cystine depletion ( ) = disulfide efficacy ([3]; disulfide of the compound, 50 μM or 100 μM): (106%)
Rat PK Bioavailability [4]: 62%
Rat PK-Half life [4]: 0.5 h
Mean DMS levels (nM) ± STD, Time 0.5 hr ([5]; rat whole blood, 150 mg/kg po, 0.5 hr): 1097 ± 418 nM
Mean DMS levels (nM) ± STD, Time 1 hr ([5]; rat whole blood, 150 mg/kg po, 1 hr): 1162 ± 373 nM
Mean DMS levels (nM) ± STD, Time 2 hr ([5]; rat whole blood, 150 mg/kg po, 2 hr): 1437 ± 334 nM
Mean DMS levels (nM) ± STD, Time […] ([5]; rat whole blood, 150 mg/kg po, […]): 641 ± 324 nM
HdhQ^111/111 cell % survival (mean ± STD) Test Conc. 10 μM (St-HdhQ^111/111 cells; [8]): 20 ± 6%
HdhQ^111/111 cell % survival (mean ± STD) Test Conc. 100 μM (St-HdhQ^111/111 cells; [9]): 105 ± 13%
inhibition of glutamate-induced excitotoxicity / cell survival (in words) (St-HdhQ^111/111 cells; St-HdhQ^111/111 cells): capable of inhibiting glutamate-induced excitotoxicity
Cystine Reactivity Assay (RT) (RFU) Mean Value (Cystine reactivity assay [1]): 4000-9000 RFU
Rat Hepatocytes CLint [6]: 33700 µL/min/mg
Mouse PK Bioavailability [7, 10]: 33%
Mouse PK-Half life [7, 10]: 2.4 h

Structure (SMILES): CC(N)CS (centres unmarked) [Compound 17515]
Cystine Depletion (%) ([3]; Table 4): 97%
Cystine Reactivity Assay (RT) (RFU) Mean Value (Cystine reactivity assay [1]): 4000-9000 RFU

Structure (SMILES): SC1CCNCC1 [Compound 2c]
metabolism by ADO compared to cysteamine (in words) (human recombinant ADO): significantly reduced metabolism by ADO compared to cysteamine
ADO metabolism (human recombinant ADO; human, 15 mM): 2%
cystine depletion levels (in words) ([3]; compared to cysteamine): slightly decreased
Cystine depletion [3]: 73%
half-life ([7]; plasma, 10 mg): 7.1 h
bioavailability ([7]; plasma, oral, 10 mg): 74%

Structure (SMILES): NCCCS [Compound 17329]
Cystine Depletion (%) ([3]; Table 4): 36%
Cystine Reactivity Assay (RT) (RFU) Mean Value (Cystine reactivity assay [1]): <4000 RFU

Structure (SMILES): CN1CCC(S)CC1 [Compound 17521]
Cystine Reactivity Assay (30° C.) (%) Mean Value (Cystine reactivity assay [2]; Table 4): 50-90%
ADO Metabolism Assay (%) Mean Value (human recombinant ADO; human, 15 mM): <25%
Emax [3, 11]: 79%
Cystine Reactivity Assay (RT) (RFU) Mean Value (Cystine reactivity assay [1]): 4000-9000 RFU

More lines, main results first:

ADO Metabolism Assay (%) Mean Value (human recombinant ADO; human, 15 mM): <25%
Structure (SMILES): SCCc1ccncc1 [Compound 17522]
Emax [3, 11]: 6%
Cystine Reactivity Assay (RT) (RFU) Mean Value (Cystine reactivity assay [1]): <4000 RFU

ADO Metabolism Assay (%) Mean Value (human recombinant ADO; human, 15 mM): <25%
Mean DMS levels (nM) ± STD, Time 1 hr ([5]; male, Sprague Dawley, rat, in vivo, po, 150 mg/kg, 1 h): <60 nM
Mean DMS levels (nM) ± STD, Time 2 hr ([5]; male, Sprague Dawley, rat, in vivo, po, 150 mg/kg, 2 h): <60 nM
Structure (SMILES): SC[C@@H]1CCCN1 (stereo in doubt) [Compound 42210]
Cystine Reactivity Assay (30° C.) (%) Mean Value (Cystine reactivity assay [2]; Table 4): >90%
Cystine Reactivity Assay (30° C.) (%) Mean Value (Cystine reactivity assay [2]; Table 5): >90%
Emax [3, 11]: 87%
Emax ([3]; Table 5, read-out: Cystine Depletion (%) Mean Value): 89%
viability at 10 µM (St-HdhQ^111/111 cells; [8]): 7 ± 6%
viability at 100 µM (St-HdhQ^111/111 cells; [9]): 105 ± 8%

ADO Metabolism Assay (%) Mean Value (human recombinant ADO; human, 15 mM): <25%
Structure (SMILES): S[C@H]1CCNC1 [Compound 42616]
Cystine Reactivity Assay (30° C.) (%) Mean Value (Cystine reactivity assay [2]; Table 4): 59-90%
Emax [3, 11]: 79%
viability at 10 µM (St-HdhQ^111/111 cells; [8]): 5 ± 7%
viability at 100 µM (St-HdhQ^111/111 cells; [9]): 56 ± 7%
